According to paper PMC3833056 (The Journal of organic chemistry, 2010):

Tests used:
[1] = tested on: mycobacterial α-(1,6)-mannosyltransferases; experiment: In vitro PPM-dependent α-; type: biochemical, Mycobacterium smegmatis; settings: inhibitor 1.0 mM; acceptor 0.2 mM; several independent experiments
[2] = tested on: α-(1,6)-ManTs; experiment: Mannosyl acceptor; type: biochemical, Mycobacterium smegmatis; settings: up to 4 mM

Row | SMILES | inhibition of α-(1,6)-mannosyltransferase activity [1] | mannosyl acceptor activity [2]
1 | C[C@H]1O[C@H](c2cn(C[C@H]3O[C@@H](c4cn(C[C@H]5O[C@@H](c6cn(C[C@H]7O[C@@H](c8cn(C[C@H]9O[C@H](c%10cn(C[C@H]%11O[C@H](CCO)[C@@H](O)[C@@H](O)[C@@H]%11O)nn%10)[C@@H](O)[C@@H](O)[C@@H]9O)nn8)[C@@H](O)[C@@H](O)[C@@H]7O)nn6)[C@@H](O)[C@@H](O)[C@@H]5O)nn4)[C@@H](O)[C@@H](O)[C@@H]3O)nn2)[C@@H](O)[C@@H](O)[C@@H]1O [TOM-6] | ca. 95% | –
2 | C[C@H]1O[C@H](c2cn(C[C@H]3O[C@@H](c4cn(C[C@H]5O[C@@H](c6cn(C[C@H]7O[C@@H](c8cn(C[C@H]9O[C@@H](c%10cn(C[C@H]%11O[C@@H](c%12cn(C[C@H]%13O[C@H](c%14cn(C[C@H]%15O[C@H](CCO)[C@@H](O)[C@@H](O)[C@@H]%15O)nn%14)[C@@H](O)[C@@H](O)[C@@H]%13O)nn%12)[C@@H](O)[C@@H](O)[C@@H]%11O)nn%10)[C@@H](O)[C@@H](O)[C@@H]9O)nn8)[C@@H](O)[C@@H](O)[C@@H]7O)nn6)[C@@H](O)[C@@H](O)[C@@H]5O)nn4)[C@@H](O)[C@@H](O)[C@@H]3O)nn2)[C@@H](O)[C@@H](O)[C@@H]1O [TOM-8] | ca. 95% | –
3 | OCC[C@H]1O[C@H](Cn2cc([C@H]3O[C@H](CO)[C@@H](O)[C@H](O)[C@@H]3O)nn2)[C@@H](O)[C@H](O)[C@@H]1O [compound 31, 3,7-Anhydro-2,8-dideoxy-8-[4-(α-D-mannopyranosyl)-1H-1,2,3-triazol-1-yl]-D-glycero-D-talo-octitol] | – | poor mannosyl acceptor
